Results published in patent publication US20260200903A1, “PHARMACEUTICAL COMPOSITION FOR AMELIORATING MALIGNANT DISEASES” (KINKI UNIVERSITY, priority 2020, published 2026).

How the values were obtained:
Assay type in all cases: cell-based
RR1 cells = test: Cell death-inducing effect of rituximab in RR1 cells, trypan blue staining
Source text: Raji cells, a burkitt lymphoma cell line, were modified to be rituximab-resistant and named RR1 cells.
(§1) Referring to FIG. 7, the horizontal axis is the rituximab concentration (μg/mL) and the vertical axis is the cell viability (%). […] However, the cell viability was clearly higher in RR1 cells, confirming that they are resistant to rituximab.

KMS-28BM cells = test: Cell death in KMS-28BM cells by each compound in combination with rituximab, trypan blue staining; settings: 10 days with 0.1 M9, 0.01 μM M14/M15/M16, 0.5 μM M18/M19, then human serum and rituximab
Method: As a control, compounds untreated KMS-28BM cells were seeded in 75 cm^2 flasks and incubated for 10 days at 37° C. and 5% CO2. KMS-28BM cells were seeded into 75 cm^2 flasks and pre-cultured for 24 h. After incubation, KMS-28BM cells were treated with […], 0.01 μM M14, 0.01 μM M15, 0.01 μM M16, 0.5 μM M18, and 0.5 μM M19 at final concentrations, and incubated for 10 days at 37° C. and 5% CO2. This added amount is a concentration lower than the IC50 of the above compounds for KMS-28BM cells.
After 10 days of incubation, cells were seeded into 96-well plates, human serum and 10 µg/mL rituximab were added, and cell viability was determined by the trypan blue staining.
For controls, only 0.5% DMSO (diluted in PBS) used to dissolve the compounds was added.

Raji cells = test: Cell death-inducing effect of rituximab in Raji cells, trypan blue staining; settings: cell viability
Source text: as §1

rituximab: an anti-CD20 monoclonal antibody
IC50 of RR1 cells to rituximab (RR1 cells; RR1 cells, cell viability): 98 µg/mL | resistance of RR1 cells to rituximab relative to Raji cells (RR1 cells; ratio of IC50 RR1 / Raji): approximately 809 times | cell death induction compared to control (KMS-28BM cells): did not induce cell death | IC50 of Raji cells to rituximab (Raji cells): 0.121 µg/mL
